From PubChem BioAssay (NCI) come the findings set out here.

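Test compounds were applied to cells in 96-well plates for 48 hours at 5 doses. TGI: total growth inhibition.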 A value given as a limit tells only on which side of the number the result lay.

Some test systems named below: SK-OV-3 ovarian; MCF7 breast; HOP-92 NSCLC; LOX IMVI melanoma; SK-MEL-5 melanoma; COLO 205 colon; 786-0 renal; HT29 colon.
Common to all, as to test: inhibition of tumour cell growth, NCI panel, 48 h

With `C/C(=N/NC(=S)Nc1ccccc1Cl)c1cccc(/C(C)=N\NC(=S)Nc2ccccc2Cl)n1`, the TGI in the test on SK-OV-3 ovarian is over 100 µM; in the test on MCF7 breast it was 93.7 µM; with HOP-92 NSCLC, over 100 µM; in the test with LOX IMVI melanoma, over 100 µM; in the test on SK-MEL-5 melanoma it was over 100 µM; in the test on COLO 205 colon, over 100 µM. Besides, the TGI in the test with 786-0 renal and in the test with HT29 colon was over 100 µM throughout.

Take `NCCCn1c2ccccc2c2c3c(c4c(c21)CCC(O)CC4)C(=O)NC3=O` (centres undefined): the TGI in the test with MCF7 breast worked out at 3.58 µM; with HOP-92 NSCLC, 12.9 µM; in the test with LOX IMVI melanoma it was 2.92 µM; in the test with SK-MEL-5 melanoma it was 16.5 µM; in the test on 786-0 renal, 16.8 µM; in the test on HT29 colon, 4.99 µM.

Turning to `[Se]=P(c1ccccc1)(c1ccccc1)c1ccc(C(c2ccccc2)=P(c2ccccc2)(c2ccccc2)c2ccccc2)cc1`, the TGI was 12.1 µM in the test with SK-OV-3 ovarian; 2.93 µM in the test with MCF7 breast; 1.91 µM in the test on HOP-92 NSCLC; 2.48 µM with LOX IMVI melanoma; 1.64 µM in the test on SK-MEL-5 melanoma; 0.659 µM with COLO 205 colon. Moreover, the TGI turned out to be 10.8 µM with 786-0 renal and 2.17 µM in the test on HT29 colon.

With `COC(=O)C(CCc1ccccc1I)C1=CCC2(CC1)OCCO2` (centres undefined), the TGI in the test on SK-OV-3 ovarian is over 100 µM; in the test with MCF7 breast, over 100 µM; in the test with HOP-92 NSCLC, over 100 µM; with LOX IMVI melanoma, over 100 µM; with SK-MEL-5 melanoma, 40 µM; in the test on COLO 205 colon, over 100 µM. The TGI in the test on 786-0 renal and in the test on HT29 colon was over 100 µM throughout.

Take `Cc1ccc(OCC2OC(n3cnc4nc(Cl)nc(Cl)c43)CC2Oc2ccc(C)cc2)cc1` (centres undefined): the TGI is over 89.5 µM in the test with SK-OV-3 ovarian; 20.6 µM in the test with MCF7 breast; 9.88 µM in the test on HOP-92 NSCLC; 3.45 µM in the test with LOX IMVI melanoma; 30.8 µM in the test with SK-MEL-5 melanoma; 27.6 µM in the test with COLO 205 colon. The TGI came out at 19.9 µM in the test with 786-0 renal and 20.4 µM in the test with HT29 colon.

`O=c1[nH]nc(-c2ccccc2)n1/N=C/c1ccncc1`: the TGI in the test on MCF7 breast, in the test with HOP-92 NSCLC, in the test with LOX IMVI melanoma, with SK-MEL-5 melanoma, with COLO 205 colon and with 786-0 renal was over 100 µM in each case. The TGI in the test on HT29 colon is over 100 µM.

As for `O=C(N=C1SCCN1C(=O)C(C(F)(F)F)C(F)(F)F)C(C(F)(F)F)C(F)(F)F`, the TGI with SK-OV-3 ovarian, in the test on MCF7 breast, with HOP-92 NSCLC, in the test with LOX IMVI melanoma, with SK-MEL-5 melanoma and in the test on COLO 205 colon was over 100 µM throughout. The TGI with 786-0 renal and in the test on HT29 colon was over 100 µM each time.

Consider `O=C1C(NCCc2ccc(O)c(O)c2)=CC(=O)c2ncccc21`, for which the TGI in the test with SK-OV-3 ovarian was determined as 38.5 µM; with MCF7 breast, 15.8 µM; in the test with HOP-92 NSCLC, 54.3 µM; in the test on LOX IMVI melanoma, 26.7 µM; with SK-MEL-5 melanoma, 15.4 µM; with COLO 205 colon, 28 µM. Further, the figures for the TGI in the test with 786-0 renal and in the test with HT29 colon were 43.2 µM and over 93.3 µM, respectively.

On to `COc1cccc(-c2ccc3c4c2O[C@H]2c5[nH]c6ccccc6c5C[C@@]5(O)[C@@H](C3)N(CC3CC3)CC[C@]425)c1`, for which the TGI was found to be 3.06 µM in the test with MCF7 breast; 3.04 µM with HOP-92 NSCLC; 3.09 µM with LOX IMVI melanoma; 3.85 µM in the test with SK-MEL-5 melanoma; 4.15 µM in the test on COLO 205 colon; 3.09 µM in the test on 786-0 renal. Also, the TGI in the test with HT29 colon came to 3.19 µM.

Take `CC12CCC(C(=O)O1)C(C)(C)O2` (centres undefined): the TGI in the test with SK-OV-3 ovarian, in the test on MCF7 breast, with HOP-92 NSCLC, with LOX IMVI melanoma, in the test with 786-0 renal and with HT29 colon was over 100 µM in each case.

As to `CCCCCCCCCCCCCCCCCCNc1ccn(C2OC(COP(=O)(O)OCC3CCC(n4cnc5c(=O)[nH]cnc54)O3)C(O)C2O)c(=O)n1` (centres undefined), the TGI in the test with SK-OV-3 ovarian, with MCF7 breast, with HOP-92 NSCLC, in the test with LOX IMVI melanoma, in the test on SK-MEL-5 melanoma and with COLO 205 colon was over 100 µM in each case. The TGI in the test on 786-0 renal and in the test with HT29 colon was over 100 µM in each case.

In the case of `CCOC(=O)c1cc(C(=O)c2ccccc2)n2nc(-c3ccc(Cl)cc3)ccc12`, the TGI with SK-OV-3 ovarian is 34.5 µM; in the test with MCF7 breast, 53.2 µM; with HOP-92 NSCLC, 60.5 µM; with LOX IMVI melanoma, over 100 µM; in the test on SK-MEL-5 melanoma it was 51.9 µM; with COLO 205 colon, over 100 µM. Moreover, the TGI worked out at 33 µM with 786-0 renal and 64.2 µM in the test with HT29 colon.

Turning to `CCCCCC(=O)N[C@@H](c1ccccc1)C(O)C(=O)OC1C[C@@]2(O)C(OC(=O)c3ccccc3)C3[C@](C)(C(=O)[C@H](O)C(=C1C)C2(C)C)C(OC1OCC(O)C(O)C1O)C[C@H]1OC[C@@]31OC(C)=O` (some centres undefined), the TGI was 57.2 µM in the test with SK-OV-3 ovarian; over 56.7 µM in the test with MCF7 breast; over 100 µM in the test with HOP-92 NSCLC; over 100 µM with SK-MEL-5 melanoma; 8.15 µM with COLO 205 colon; over 100 µM in the test on 786-0 renal. Besides, the TGI in the test on HT29 colon is over 36.8 µM.

As for `Cc1ccsc1/C=N/Nc1cc(C)c2cccc(C)c2n1`, the TGI in the test with SK-OV-3 ovarian, with MCF7 breast, with HOP-92 NSCLC, in the test on COLO 205 colon, in the test with 786-0 renal and in the test on HT29 colon was over 100 µM in each case.

Take `O=C1NC(N/N=C\C(O)C(O)C(O)CO)=N/C1=C/c1ccc(Cl)cc1` (centres undefined): the TGI in the test with SK-OV-3 ovarian, in the test on MCF7 breast, in the test with HOP-92 NSCLC, with LOX IMVI melanoma, with SK-MEL-5 melanoma and in the test on COLO 205 colon was over 100 µM throughout. Further, the TGI with 786-0 renal and in the test on HT29 colon was over 100 µM throughout.

Take `c1ccc(-c2sc(-c3cccs3)cc2Cc2cccs2)cc1`: the TGI with SK-OV-3 ovarian, in the test on MCF7 breast, in the test on HOP-92 NSCLC, with LOX IMVI melanoma, in the test on SK-MEL-5 melanoma and in the test on COLO 205 colon was over 10 µM in each case. Moreover, the TGI in the test with 786-0 renal and in the test with HT29 colon was over 10 µM each time.
